From patent publication US9480751B2, “Albumin binding probes and drug conjugates thereof” (priority 2011, dated 2016)

Assays:
[1] = said to have; cited from earlier work
[2] = Hydrophobic chromatography (analytical HPLC, chromolite RP-18e) as estimate of overall lipophilicity; details: chromolite R.P-18e column, mixture of 40 μg each, FIG. 3
Description: Analytical reverse phase-HPLC was performed using a pre-packed Chromolith™ Performance RP-18e column (4.6×100 mm, Merck, Darmstadt, Germany). The column was eluted with a binary gradient of 10-100% solution B over 10 min with a flow rate of 3 ml/min (solution A was 0.1% trifluoroacetic acid in H2O and solution B was 0.1% trifluoroacetic acid in acetonitrile:H2O; 3:1, v/v).
This approach of hydrophobic chromatography yields an estimate of the overall lipophilicity of peptide analogs (Shechter et al., 2010).

CD1-mice = assay: Blood glucose levels in CD1 mice after a single administration; format: in vivo
Description: (§1) Each point is the arithmetic mean of n=6 mice±SE.
as §1
Blood glucose levels were determined at varying time points following administration of insulin, exendin-4, and their derivatives in blood aliquots taken from the tail vein. Glucose analyzer (Beckman Instruments Fullerton, Calif.) was used. Groups consisted of six mice each. Data are presented as means±SE.

[3] = background statement; cited from earlier work
[4] = single subcutaneous 0.25 nmole/mouse, CD1 mice

| Substance | Duration of action [1] | Rt value, hydrophobic chromatography (estimate of overall lipophilicity) [2] [min] | Blood glucose level 48 hrs after administration (last time point) (CD1-mice; intravenous 0.25 nmole/mouse) | t1/2 value of glucose-lowering (CD1-mice; single intravenous 0.25 nmole/mouse, CD1 mice) [h] | Glucose level reached after administration (CD1-mice; [4]) [mg/dL] | Period over which glucose remained at low level (CD1-mice; [4]) [h] | t1/2 value of glucose-lowering (CD1-mice; [4]) [h] | Glucose level reached after administration (CD1-mice; single subcutaneous 0.25 nmole/mouse, CD1 mice, listed as HO3S—(CH2)15—CO-exendin-4) | t1/2 of glucose reduction (CD1-mice; subcutaneous and intravenous administration, stated together) [h] | t1/2 of glucose-lowering effect (CD1-mice; single subcutaneous 0.69 nmole/mouse, CD1 mice) [h] | t1/2 in plasma [3] [min] |
| --- | --- | --- | --- | --- | --- | --- | --- | --- | --- | --- | --- |
| N^εB29-tetradecanoyl des(B30) insulin [insulin-detemir] | up to 24 hours | 9.107 |  |  |  |  |  |  |  |  |  |
| exendin-4-CO—(CH2)15—SO3^− |  |  | still low | 28 ± 2 | 70 ± 5 | ~24 | 32 ± 2 | 70+5 mg/dl | 28 to 32 |  |  |
| insulin: Human (Zn^2+-free) insulin |  | 7.312 |  |  |  |  |  |  |  | 2 ± 0.2 | 5 to 6 |
